These results are taken from patent publication US7452887B2, “Quinoline- and isoquinoline-based compounds exhibiting ATP-utilizing enzyme inhibitory activity, and compositions, and uses thereof” (Amphora Discovery Corporation, priority 2004, dated 2008).

SMILES strings stand for the structures.

Common to all, as to assay: HTS ATP-utilizing enzyme assay, off-chip mobility-shift (Caliper HTS 250)
Format in all cases: biochemical
Holding throughout (details): test compound 10 μM, kinase listed = active (greater than six-sigma from the mean activity of inactive compounds)

Test [1] has as its target MAPKAPK2 (Homo sapiens, UniProt P49137). Put shortly: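 Single-point screen of test compound at 10 μM against MAPKAPK2 with peptide substrate in HEPES pH 7.5 buffer (Triton X-100, BSA), 2.5 h at 20-22 °C. Substrate-to-phosphopeptide ratio was read by off-chip microfluidic mobility shift; EDTA and DMSO wells defined 100% and 0% controls, hits by six-sigma limits.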
The target in test [2] is T1, NEK2 (Homo sapiens, UniProt P51955).
T1 sequence (P51955 1-445): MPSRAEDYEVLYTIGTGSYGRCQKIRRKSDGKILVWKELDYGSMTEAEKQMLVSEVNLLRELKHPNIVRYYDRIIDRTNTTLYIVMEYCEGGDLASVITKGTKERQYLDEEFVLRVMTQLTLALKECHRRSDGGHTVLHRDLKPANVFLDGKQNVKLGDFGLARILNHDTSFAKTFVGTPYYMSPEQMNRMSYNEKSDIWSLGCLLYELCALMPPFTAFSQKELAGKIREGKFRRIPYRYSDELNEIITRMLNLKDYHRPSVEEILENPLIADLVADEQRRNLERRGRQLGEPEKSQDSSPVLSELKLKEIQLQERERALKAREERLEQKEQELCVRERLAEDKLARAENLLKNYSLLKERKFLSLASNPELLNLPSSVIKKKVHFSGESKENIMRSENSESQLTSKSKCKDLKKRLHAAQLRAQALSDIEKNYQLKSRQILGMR
The source says:
(§1) The following procedures describe the reagent and plate preparation for a HTS of an ATP-utilizing enzyme, such as a protein kinase, run in an off-chip mobility-shift assay format. The following provides an HTS protocol for running a protein kinase HTS screen on a Caliper HTS 250 microfluidics system. The following parameters are dependent on the protein kinase used and can be determined by one skilled in the art as part of a typical assay development process. For example, the peptide substrate used can be identified from the current literature, by screening a peptide library of potential protein kinase substrates, or by other applicable means accepted in the field.
(§2) The following table provides typical screen assay parameters appropriate for a Caliper HTS 250 microfluidics system.
(§3) The reagents and buffers listed in the following table are generally applicable for developing and running an HTS screen on a human protein kinase using the Caliper HTS 250 system.
(§4) The following reagents were prepared using the previously described buffers.
(§5) A 2× Master Buffer solution was prepared by combining 200 mL of 1 M HEPES, pH 7.5, 2 mL of 10% Triton X-100, 20 mL of 10% BSA, and 778 mL of H2O.
(§6) A 2.5× Substrate Buffer solution was prepared by combining 177.408 mL of 2× Master Buffer, 0.887 mL of 1 mM peptide-X, and 176.521 mL of H2O.
(§7) A 1.55× Termination Buffer solution was prepared by combining 762.05 mL of 2× Master Buffer, 95.1 mL of 0.5 M EDTA, and 666.94 mL of H2O.
(§8) A TCB Buffer solution was prepared by combining 125 mL of 2× Master Buffer, 10 mL of 0.5 M EDTA, 6.25 mL of 4% coating reagent, 1.01 mL of 100% DMSO, and 107.74 mL H2O.
(§9) A Dye Trough solution was prepared by combining 0.5 μL of peptide-X, and 2,999.5 μL of IX Master Buffer.
(§10) A 1.06× Assay Buffer solution was prepared by combining 205.15 mL of 2× Master Buffer, and 181.92 mL of H2O.
(§11) Assays to determine the kinase inhibitory activity of compounds of the present disclosure were performed using a Caliper HTS 250 microfluidics device, Greiner U-bottom assay plates, a Multidrop for transfer of reagents, and Biomek FX (AMNCBM03) software. Initially, 2.4 μL of a 1 mM solution of a test compound in 100% DMSO was added to a well of the Greiner U-bottom plate. A single Greiner U-bottom plate having 24×16 wells could include multiple test compounds. Next, […] of 1.06× Assay Buffer was added to each well of the assay plate. Using the Biomek FX, 10 μL of 0.5 M EDTA was added by the span-8 to wells, indicated as 100% Control and 2.4 μL of 100% DMSO was added by the span-8 to wells, indicated as 0% Control. Using the Multidrop, 10 μL of 2.5× Enzyme Buffer, followed by 10 μL of 2.5× Substrate Buffer was added to each well of the assay plate. The total reaction volume in each well was 25 μL, and the concentration of the test compound was 10 μM. The assay plate was incubated for 2.5 hrs at 20° C. to 22° C. After the incubation period, using the Multidrop, 45 μL of 1.55× Termination Buffer was added to each well of the assay plate to stop the reaction. The inhibition of the ATP-utilizing enzyme, such as a particular protein kinase, was determined by measuring the ratio of the peptide substrate to phosphorylated product for each well of the assay plate using the Caliper HTS 250 system.
(§12) The use of six-sigma statistical limits represents a conservative method for declaring potential hits among targets. The six-sigma activity, as well as the mean population activity, can be different for each target enzyme. This method has an expected false positive rate, from an in-control measurement process, of one in one million.

For test [3], the target named is T2, PRAK (Homo sapiens, UniProt Q8IW41).
T2 sequence (Q8IW41 1-473): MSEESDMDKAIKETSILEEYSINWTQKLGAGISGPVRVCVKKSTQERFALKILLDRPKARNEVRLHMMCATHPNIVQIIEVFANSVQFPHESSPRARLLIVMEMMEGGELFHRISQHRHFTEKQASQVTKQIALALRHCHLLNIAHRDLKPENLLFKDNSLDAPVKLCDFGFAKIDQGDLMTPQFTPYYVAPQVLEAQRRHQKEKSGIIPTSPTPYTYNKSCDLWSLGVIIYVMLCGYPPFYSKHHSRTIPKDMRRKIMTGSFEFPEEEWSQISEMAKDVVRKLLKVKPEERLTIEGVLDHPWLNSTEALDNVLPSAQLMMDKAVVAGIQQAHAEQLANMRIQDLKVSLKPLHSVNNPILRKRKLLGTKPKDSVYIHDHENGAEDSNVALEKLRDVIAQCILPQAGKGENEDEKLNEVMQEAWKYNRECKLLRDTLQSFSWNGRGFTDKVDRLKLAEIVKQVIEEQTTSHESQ
From the text: as §1, §2, §3, §4, §5, §6, §7, §8, §9, §10, §11, §12

Chain of MAPKAPK2 (P49137 whole entry): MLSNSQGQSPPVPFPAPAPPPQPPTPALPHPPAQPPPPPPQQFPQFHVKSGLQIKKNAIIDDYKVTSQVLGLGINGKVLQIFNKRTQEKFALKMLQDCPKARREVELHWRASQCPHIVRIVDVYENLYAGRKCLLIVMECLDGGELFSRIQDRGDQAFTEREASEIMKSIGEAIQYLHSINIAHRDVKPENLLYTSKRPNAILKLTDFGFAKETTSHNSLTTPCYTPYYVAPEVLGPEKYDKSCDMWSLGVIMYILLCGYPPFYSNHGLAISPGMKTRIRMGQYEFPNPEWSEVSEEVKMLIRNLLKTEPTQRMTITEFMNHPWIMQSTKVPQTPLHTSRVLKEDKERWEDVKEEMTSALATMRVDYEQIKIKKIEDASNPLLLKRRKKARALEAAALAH

In the case of `CN1CCN(c2ccc(Nc3ccnc4ccc(-c5ccc(C#N)cc5)cc34)cc2)CC1` [4-(4-(4-(4-methylpiperazin-1-yl)phenylamino)quinolin-6-yl)benzonitrile], the Activity entry in test [1] is recorded as “MAPKAPK2”; in test [2] it was “NEK2”; in test [3] it was “PRAK”.
For the compound `Cc1cccc(-c2ccc3nccc(Nc4ccc(N5CCN(C)CC5)cc4)c3c2)c1C` [6-(2,3-dimethylphenyl)-N-(4-(4-methylpiperazin-1-yl)phenyl)quinolin-4-amine], the Activity result in test [1] was “MAPKAPK2”; in test [2], “NEK2”; in test [3], “PRAK”.
For `CN1CCN(c2ccc(Nc3ccnc4ccc(-c5ccc(Cl)cc5Cl)cc34)cc2)CC1` [6-(2,4-dichlorophenyl)-N-(4-(4-methylpiperazin-1-yl)phenyl)quinolin-4-amine], the Activity result in test [1] is listed as “MAPKAPK2”; in test [2], “NEK2”; in test [3], “PRAK”.
The matching figures for `CN1CCN(c2ccc(Nc3ccnc4ccc(-c5ccc(F)cc5F)cc34)cc2)CC1` [6-(2,4-difluorophenyl)-N-(4-(4-methylpiperazin-1-yl)phenyl)quinolin-4-amine]: “MAPKAPK2”, “NEK2” and “PRAK”.
Take `COc1ccc(-c2ccc3nccc(Nc4ccc(N5CCN(C)CC5)cc4)c3c2)c(OC)c1` [6-(2,4-dimethoxyphenyl)-N-(4-(4-methylpiperazin-1-yl)phenyl)quinolin-4-amine]: the Activity entry in test [1] is “MAPKAPK2”; in test [2], “NEK2”; in test [3], “PRAK”.
As for `CN1CCN(c2ccc(Nc3ccnc4ccc(-c5cc(F)ccc5F)cc34)cc2)CC1` [6-(2,5-difluorophenyl)-N-(4-(4-methylpiperazin-1-yl)phenyl)quinolin-4-amine], the figures for the Activity entry in test [1], in test [2] and in test [3] were “MAPKAPK2”, “NEK2” and “PRAK”, respectively.
With `CCc1ccccc1-c1ccc2nccc(Nc3ccc(N4CCN(C)CC4)cc3)c2c1` [6-(2-ethylphenyl)-N-(4-(4-methylpiperazin-1-yl)phenyl)quinolin-4-amine], the Activity entry in test [1] is listed as “MAPKAPK2”; in test [2], “NEK2”; in test [3], “PRAK”.
As for `COc1ccccc1-c1ccc2nccc(Nc3ccc(N4CCN(C)CC4)cc3)c2c1` [6-(2-methoxyphenyl)-N-(4-(4-methylpiperazin-1-yl)phenyl)quinolin-4-amine], the results for the Activity entry in test [1], in test [2] and in test [3] were “MAPKAPK2”, “NEK2” and “PRAK”, respectively.
As to `Cc1ccc(-c2ccc3nccc(Nc4ccc(N5CCN(C)CC5)cc4)c3c2)cc1C` [6-(3,4-dimethylphenyl)-N-(4-(4-methylpiperazin-1-yl)phenyl)quinolin-4-amine], the results for the Activity entry in test [1], in test [2] and in test [3] were “MAPKAPK2”, “NEK2” and “PRAK”, respectively.
The matching figures for `CN1CCN(c2ccc(Nc3ccnc4ccc(-c5cccc(Cl)c5)cc34)cc2)CC1` [6-(3-chlorophenyl)-N-(4-(4-methylpiperazin-1-yl)phenyl)quinolin-4-amine]: “MAPKAPK2”, “NEK2” and “PRAK”.
For `CC(C)c1ccc(-c2ccc3nccc(Nc4ccc(N5CCN(C)CC5)cc4)c3c2)cc1` [6-(4-isopropylphenyl)-N-(4-(4-methylpiperazin-1-yl)phenyl)quinolin-4-amine], the Activity entry in test [1] is listed as “MAPKAPK2”; in test [2], “NEK2”; in test [3] it was “PRAK”.
Turning to `COc1ccc(C(C)C)cc1-c1ccc2nccc(Nc3ccc(N4CCN(C)CC4)cc3)c2c1` [6-(5-isopropyl-2-methoxyphenyl)-N-(4-(4-methylpiperazin-1-yl)phenyl)quinolin-4-amine], the Activity entry in test [1] was “MAPKAPK2”; in test [3], “PRAK”.
The matching figures for `CCCN1CCN(c2ccc(Nc3ccnc4ccc(-c5ccccc5)cc34)cc2)CC1` [6-phenyl-N-(4-(4-propylpiperazin-1-yl)phenyl)quinolin-4-amine]: “MAPKAPK2” and “PRAK”.
With `CN1CCN(c2ccc(Nc3ccnc4ccc(-c5ccc(CO)cc5)cc34)cc2)CC1` [(4-(4-(4-(4-methylpiperazin-1-yl)phenylamino)quinolin-6-yl)phenyl)methanol], the values for the Activity result in test [1] and in test [3] were “MAPKAPK2” and “PRAK”, respectively.
Turning to `CCN1CCN(c2ccc(Nc3ccnc4ccc(-c5ccccc5)cc34)cc2)CC1` [N-(4-(4-ethylpiperazin-1-yl)phenyl)-6-phenylquinolin-4-amine], the Activity result in test [1] was “MAPKAPK2”; in test [3] it was “PRAK”.
The matching figures for `CN1CCN(c2ccc(Nc3ccnc4ccc(-c5cccc(OC(F)(F)F)c5)cc34)cc2)CC1` [N-(4-(4-methylpiperazin-1-yl)phenyl)-6-(3-(trifluoromethoxy)phenyl)quinolin-4-amine]: “MAPKAPK2” and “PRAK”.
On to `CN1CCN(c2ccc(Nc3ccnc4ccc(-c5ccc([S+](C)[O-])cc5)cc34)cc2)CC1` (stereo not shown) [N-(4-(4-methylpiperazin-1-yl)phenyl)-6-(4-(methylsulfinyl)phenyl)quinolin-4-amine], for which the Activity entry in test [1] is “MAPKAPK2”; in test [3], “PRAK”.
For `CN1CCN(c2ccc(Nc3ccnc4ccc(-c5ccc(OC(F)(F)F)cc5)cc34)cc2)CC1` [N-(4-(4-methylpiperazin-1-yl)phenyl)-6-(4-(trifluoromethoxy)phenyl)quinolin-4-amine], the Activity entry in test [1] is reported as “MAPKAPK2”; in test [3] it was “PRAK”.
For the compound `CN1CCN(c2ccc(Nc3ccnc4ccc(-c5ccsc5)cc34)cc2)CC1` [N-(4-(4-methylpiperazin-1-yl)phenyl)-6-(thiophen-3-yl)quinolin-4-amine], the Activity result is recorded as “MAPKAPK2” in test [1] and “PRAK” in test [3].
